Test results reported in patent US8980933B2, “Combretastatin analogs for use in the treatment of cancer” (Universitat Bayreuth, priority 2010, dated 2015).
Several values for one entry are separate records, joined by “and”; a condition that tells them apart may be missing. Equal entries are not always repeated.

Key:
Type in all cases: cell-based, human
[1] = system: MCF-7/Topo breast carcinoma cells; assay: MTT cell growth inhibition, MCF-7/Topo; settings: MCF-7/Topo (BCRP+)
Description: The effects of the compounds 5b, 6b, 8a, and 8e according to the present invention and of the reference compound 25f (Wang et al., J. Med. Chem. 2002, 45, 1697-1711) on cells of the following human tumor cell lines were evaluated: 518A2 melanoma, HL-60 leukemia, HT-29 colon carcinoma, KB-V1/Vbl cervical carcinoma, and MCF-7/Topo breast carcinoma.
The HL-60 cells were obtained from the German Collection of Biological Material (DSMZ), Braunschweig, Germany; the human 518A2 melanoma cells as well as the testicular germ cell tumor cell lines H12.1 and 1411HP were cultured in the department of oncology and hematology, Medical Faculty of the Martin-Luther University, Halle, Germany; the KBV1/Vbl and the MCF-7/Topo cells were obtained from the Institute of Pharmacy of the University Regensburg, Germany; and the colon HT-29 cells from the University Hospital Erlangen, Germany. The HL-60 and the HT-29 cells were grown in RPMI-1640 medium supplemented with 10% fetal calf serum (FCS), 100 IU/mL penicillin G, 100 μg/mL streptomycin sulfate, 0.25 μg/mL amphotericin B and 250 μg/mL gentamycine (all from Gibco, Egenstein, Germany). The 518A2 and the KB-V1/Vbl cells were cultured in Dulbecco's Modified Eagle Medium (D-MEM, Gibco) containing 10% FCS, 100 IU/mL penicillin G, 100 μg/mL streptomycin sulfate, 0.25 μg/mL amphotericin B and 250 μg/mL gentamycine. The MCF-7/Topo cells were grown in E-MEM medium (Sigma) supplemented with 2.2 g/L NaHCO3, 110 mg/L sodium pyruvate and 5% FCS. The cells were maintained in a moisture-saturated atmosphere (5% CO2) at 37° C. in 75-mL culture flasks (Nunc, Wiesbaden, Germany). They were serially passaged following trypsinisation by 0.05% trypsin/0.02% EDTA (PAA laboratories, Clbe, Germany). Mycoplasma contamination was routinely monitored, and only mycoplasma-free cultures were used.
MTT [3-(4,5-dimethylthiazol-2-yl)-2,5-diphenyltetrazolium bromide](ABCR) was used to identify viable cells which reduce it to a violet formazan (Mosmann, J. Immunol. Methods 1983, 65, 55-63). HL-60 leukemia cells (5×10^5/mL), and cells (5×10^4/mL) of 518A2 melanoma, HT-29 colon, KB-V1/Vbl cervix and MCF-7/Topo breast carcinoma were seeded out in 96-well tissue culture plates and cultured for 24 h. Incubation (5% CO2, 95% humidity, 37° C.) of the cells following treatment with the test compounds was continued for 24, 48 or 72 h. Blank and solvent controls were treated identically. […] The microplates were gently shaken in the dark for 30 min and absorbance at 570 nm and 630 nm (background) was measured with an ELISA plate reader. All experiments were carried out in quadruplicate; the percentage of viable cells was calculated as the mean±SD with controls set to 100%.

HL-60 cells = assay: ROS generation, NBT assay, HL-60; settings: 50 μM, relative to untreated controls (1%), mean ± SD
Description: The generation of reactive oxygen species (ROS) in tumor cells is a sign of cellular stress resulting in severe damage of cellular components such as DNA, lipids or proteins.
For the NBT assay, HL-60 cells (0.5·10^6/mL) were plated in 96-well tissue culture plates, and test compounds were added after 24 h incubation at 37° C. to achieve a final concentration of 50 μM. […] After removal of the cell medium by centrifugation, the cells in each well were resuspended in 100 μL 0.1% NBT, and the plates were placed in the incubator for 1 h. The reduced NBT was solubilized with 100 μl 2 M KOH and 130 μl DMSO for 30 min. The absorbance was measured for each well at 630 and 405 nm (background) using an ELISA plate reader. The adherent 518A2 cells (0.5·10^4/mL) were seeded out in 96-well tissue culture plates after trypsinization and incubation for 24 h at 37° C. to allow attachment, then treated similarly, only that the medium was removed prior to incubation with NBT for 4 h. All experiments were carried out in quadruplicate.

[2] = system: KB-V1/Vbl cervical carcinoma cells; assay: MTT cell growth inhibition, KB-V1/Vbl; settings: Pgp-overexpressing KB-V1 cells
Description: The MCF-7/Topo cells were grown in E-MEM medium (Sigma) supplemented with 2.2 g/L NaHCO3, 110 mg/L sodium pyruvate and 5% FCS. The cells were maintained in a moisture-saturated atmosphere (5% CO2) at 37° C. in 75-mL culture flasks (Nunc, Wiesbaden, Germany). They were serially passaged following trypsinisation by 0.05% trypsin/0.02% EDTA (PAA laboratories, Clbe, Germany). Mycoplasma contamination was routinely monitored, and only mycoplasma-free cultures were used.
HL-60 leukemia cells (5×10^5/mL), and cells (5×10^4/mL) of 518A2 melanoma, HT-29 colon, KB-V1/Vbl cervix and MCF-7/Topo breast carcinoma were seeded out in 96-well tissue culture plates and cultured for 24 h. […] Blank and solvent controls were treated identically. MTT in phosphate buffered saline (5 mg/mL) was added to a final concentration of 0.05% (HL-60, 518A2) or 0.1% (HT-29, KB-V1/Vbl, MCF-7/Topo). After 2 h the formazan precipitate was dissolved in 10% sodium dodecylsulfate in DMSO containing 0.6% acetic acid in the case of the HL-60 cells. For the adherent 518A2, KB-V1/Vbl, MCF-7/Topo and HT-29 cells the microplates were swiftly turned to discard the medium before adding the solvent mixture. The microplates were gently shaken in the dark for 30 min and absorbance at 570 nm and 630 nm (background) was measured with an ELISA plate reader. All experiments were carried out in quadruplicate; the percentage of viable cells was calculated as the mean±SD with controls set to 100%.

Row | SMILES | cytotoxicity / efficacy (comparison) [1] | NBT Reduction [%] in HL-60 cells after 24 h (HL-60 cells) | IC50 concentration [2]
1 | COc1ccc(-c2c(-c3cc(Cl)c(OC)c(OC)c3)ncn2C)cc1N [compound 5b, 1-methyl-5-(3-amino-4-methoxyphenyl)-4-(3-chloro-4,5-dimethoxyphenyl)-imidazole] | noticeably less active but still superior to the known imidazole 25f | 4.4% and 4.4 ± 0.6% | single-digit nanomolar range
2 | COc1ccc(-c2c(-c3cc(Br)c(OC)c(OC)c3)ncn2C)cc1N [compound 6b, 1-methyl-5-(3-amino-4-methoxyphenyl)-4-(3-bromo-4,5-dimethoxyphenyl)-imidazole] | noticeably less active but still superior to the known imidazole 25f | 3.8 ± 0.3% | single-digit nanomolar range
